Experimental data reported in patent US10703764B2, “Benzopiperazine compositions as BET bromodomain inhibitors” (FORMA Therapeutics, Inc., priority 2013, dated 2020).

Assays:
MV4-11 cells = experiment: Oncology cell growth assay (3-day proliferation, CellTiter-Glo); format: cell-based; conditions: Homo sapiens, MV4-11, 72 h, AML cell line MV4-11, 72 hours, compounds grouped by IC50 range, read-out: MV4-11 IC50 (inhibition of proliferation, gIC50)
In short: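 Luminescence from CellTiter-Glo served as the growth read-out after MV4-11 cells (3000/well) were cultured with compound for 72 hours. Final concentrations spanned 10 to 0.0045 μM in 3-fold steps. gIC50 values were derived by four-parameter logistic fitting relative to DMSO and cell-free controls.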

BRD4 BD2 = target: T1, BRD4 BD2 (Homo sapiens, UniProt O60885); experiment: AlphaScreen binding assay, BRD4 Bromodomain 2
T1 construct: made in house
In short: (§1)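 An AlphaScreen competition format was used with His-BRD4 BD1 or BD2 and biotin-H4 K5/8/12/16-acetyl peptide, each at matched final levels of 50 nM (BD1) or 100 nM (BD2). Incubation in HEPES/NaCl buffer with 0.1% BSA and 0.01% Triton X-100 ran ≥1 h before IC50 determination.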

BRD4 BD1 = target: T2, BRD4 BD1 (Homo sapiens, UniProt O60885); experiment: AlphaScreen binding assay, BRD4 Bromodomain 1
T2 construct: made in house
In short: as §1

IC50 (MV4-11 cells) [µM]	IC50 (BRD4 BD2) [µM]	IC50 (BRD4 BD1) [µM]	Structure (SMILES)
0.1 to 0.5	0.05 to 0.5	0.1 to 1	C[C@H]1CN(C(=O)OC2CCOCC2)c2cc(-c3cnn(C4CC4)c3)ccc2N1C(=O)C1CC1 [Example I-1001]
> 0.5	0.05 to 0.5	1 to 10	CC(=O)N1c2ccc(-c3ccc(F)c(S(C)(=O)=O)c3)cc2N(C(=O)OC(C)C)C[C@@H]1C [Example I-1101]
> 0.5	0.05 to 0.5	> 10	CC(=O)N1c2ccc(-c3cnn(CCO)c3)cc2N(C(=O)N(C)C(C)C)C[C@@H]1C [Example I-1211]
0.1 to 0.5	0.05 to 0.5	1 to 10	COc1ccc(-c2ccc3c(c2)N(C(=O)C2CC2)C[C@H](C)N3C(C)=O)cc1NS(C)(=O)=O [Example I-1139]
0.1 to 0.5	0.05 to 0.5	1 to 10	CCS(=O)(=O)Nc1cccc(-c2ccc3c(c2)N(C(=O)C2CC2)C[C@H](C)N3C(C)=O)c1 [Example I-1054]
0.1 to 0.5	0.05 to 0.5	0.1 to 1	CC(=O)N1c2ccc(-c3cccc(NS(=O)(=O)N(C)C)c3)cc2N(C(=O)OC(C)C)C[C@@H]1C [Example I-1146]
0.1 to 0.5	0.05 to 0.5	0.1 to 1	CCNS(=O)(=O)c1ccc(-c2ccc3c(c2)N(C(=O)OCC)C[C@H](C)N3C(C)=O)cc1 [Example I-1137]
0.1 to 0.5	0.05 to 0.5	1 to 10	CCOC(=O)N1C[C@H](C)N(C(C)=O)c2ccc(-c3cccc(S(=O)(=O)NC)c3)cc21 [Example I-1106]
> 0.5	0.05 to 0.5	1 to 10	CC(=O)N1c2ccc(-c3ccc(N4CCOCC4)cc3)cc2N(C(=O)OC(C)C)C[C@@H]1C [Example I-1061]

Second part, the molecule before the results:

Structure (SMILES)	IC50 (MV4-11 cells) [µM]	IC50 (BRD4 BD2) [µM]	IC50 (BRD4 BD1) [µM]
CC(C)OC(=O)N1C[C@H](C)N(C(=O)C2CC2)c2ccc(-c3ccc(C(=O)N4CC(O)C4)cc3)cc21 [Example I-578]	0.1 to 0.5	0.05 to 0.5	0.1 to 1
CC(=O)N1c2ccc(-c3ccc(C(=O)N4CCCC[C@@H]4CN)cc3)cc2N(C(=O)OC(C)C)C[C@@H]1C [Example I-591]	0.1 to 0.5	0.05 to 0.5	0.1 to 1
CC(=O)N1c2ccc(-c3ccc(C(=O)N4CCCC4)cc3)cc2N(C(=O)c2ccco2)C[C@@H]1C [Example I-282]	0.1 to 0.5	< 0.05	1 to 10
CC(=O)N1c2ccc(-c3ccc(C(=O)NCCN(C)C)cc3)cc2N(C(=O)OC(C)C)C[C@@H]1C [Example I-533]	< 0.1	0.05 to 0.5	0.1 to 1
COC(=O)N1c2ccc(-c3cnn(CCn4ccnc4)c3)cc2N(C(=O)OC(C)C)C[C@@H]1C [Example I-627]	> 0.5	0.05 to 0.5	0.1 to 1
CC(=O)N1c2ccc(-c3cccc(NS(C)(=O)=O)c3)cc2N(C(=O)c2ccco2)C[C@@H]1C [Example I-844]	0.1 to 0.5	< 0.05	0.1 to 1
CC(=O)N1c2ccc(-c3ccc(C(=O)N4CC[C@H](N(C)C)C4)cc3)cc2N(C(=O)OC(C)C)C[C@@H]1C [Example I-543]	< 0.1	< 0.05	< 0.1
CC(=O)Nc1cc2c(cc1-c1cnn(C3CC3)c1)N(C(=O)OC(C)C)C[C@H](C)N2C(C)=O [Example I-214, Isopropyl (S)-6-acetamido-4-acetyl-7-(1-cyclopropyl-1H-pyrazol-4-yl)-3-methyl-3,4-dihydroquinoxaline-1(2H)-carboxylate]	0.1 to 0.5	0.05 to 0.5	0.1 to 1
CC(=O)N1c2ccc(-c3cnn(CCN4CCOCC4)c3)cc2N(C(=O)OC(C)C)C[C@@H]1C [Example I-306]	0.1 to 0.5	0.05 to 0.5	0.1 to 1
COCCn1cc(-c2ccc3c(c2)N(C(=O)c2ccco2)C[C@H](C)N3C(C)=O)cn1 [Example I-18, (S)-1-(4-(furan-2-carbonyl)-6-(1-(2-methoxyethyl)-1H-pyrazol-4-yl)-2-methyl-3,4-dihydroquinoxalin-1(2H)-yl)ethanone]	0.1 to 0.5	< 0.05	0.1 to 1
CC(=O)N1c2ccc(-c3cnn(Cc4ccncc4)c3)cc2N(C(=O)OC(C)C)C[C@@H]1C [Example I-117, (S)-isopropyl 4-acetyl-3-methyl-7-(1-(pyridin-4-ylmethyl)-1H-pyrazol-4-yl)-3,4-dihydroquinoxaline-1(2H)-carboxylate]	0.1 to 0.5	0.05 to 0.5	0.1 to 1
CNC(=O)Cn1cc(-c2ccc3c(c2)N(C(=O)OC(C)C)C[C@H](C)N3C(C)=O)cn1 [Example I-134, (S)-isopropyl 4-acetyl-3-methyl-7-(1-(2-(methylamino)-2-oxoethyl)-1H-pyrazol-4-yl)-3,4-dihydroquinoxaline-1(2H)-carboxylate]	> 0.5	0.05 to 0.5	0.1 to 1
